In ChEMBL document CHEMBL3872238, “Selectivity switch between FAK and Pyk2: Macrocyclization of FAK inhibitors improves Pyk2 potency” (Bioorg Med Chem Lett, 2016):
≈ marks a conversion by molar mass, not a printed value.

Assays:
[1] = Kinetic solubility of compound at pH 7; format: physicochemical; settings: buffer, read-out: Kinetic_solubility
[2] = Permeability from apical side to basolateral side in human Caco2 cells; format: ADME, cell-based; settings: Caco-2, read-out: permeability
[3] = Permeability from basolateral side to apical side in human Caco2 cells; format: ADME, cell-based; settings: Caco-2, read-out: permeability
[4] = Half life in mouse liver microsomes; format: ADME
[5] = Half life in dog liver microsomes; format: ADME, Canis lupus familiaris
[6] = Half life in human liver microsomes; format: ADME

solubility kinetic [1] [µM]	Papp A→B [2] [×10⁻⁶ cm/s]	Papp B→A [3] [×10⁻⁶ cm/s]	half-life [4] [h]	half-life [5] [h]	half-life [6] [h]	SMILES
1 (≈ 0.576 µg/mL)	–	–	–	–	–	CN1Cc2cccnc2N(S(C)(=O)=O)C/C=C/c2cc(ccc2N2CCOCC2)Nc2ncc(C(F)(F)F)c1n2
–	30	32	< 1	< 1	< 1	CS(=O)(=O)N1CCCCC(=O)N2CCc3cc(ccc32)Nc2ncc(C(F)(F)F)c(n2)NCc2cccnc21
0.3 (≈ 0.143 µg/mL)	–	–	–	–	–	CS(=O)(=O)N1C/C=C/c2cccc(c2)Nc2ncc(C(F)(F)F)c(n2)NCc2cccnc21
< 1.6	–	–	< 1	< 1	< 1	CS(=O)(=O)N1CCCCC(=O)N2CCc3cc(ccc32)Nc2ncc(C(F)(F)F)c(n2)NCc2ccccc21
< 1.6	–	–	< 1	< 1	< 1	CCS(=O)(=O)N1CCCCC(=O)N2CCc3cc(ccc32)Nc2ncc(C(F)(F)F)c(n2)NCc2ccccc21
< 1.6	–	–	< 1	< 1	< 1	CN1Cc2ccccc2N(S(C)(=O)=O)CCCCC(=O)N2CCc3cc(ccc32)Nc2ncc(C(F)(F)F)c1n2
3 (≈ 1.73 µg/mL)	–	–	–	–	4.38	CN1Cc2ccncc2N(S(C)(=O)=O)C/C=C/c2cc(ccc2N2CCOCC2)Nc2ncc(C(F)(F)F)c1n2
–	11	29	–	–	–	CN(c1ncccc1CNc1nc(Nc2ccc3c(c2)CC(=O)N3)ncc1C(F)(F)F)S(C)(=O)=O [PF-00562271]
